Tested on: Unknown protein yeast genes
Experiment: DNA chip mRNA expression in yeast, unknown protein yeast genes (Table 1)
Format: cell-based, Saccharomyces cerevisiae S288C
How it was run: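 In this screen, yeast in logarithmic growth are challenged for two hours with a toxic substance at a non-lethal inhibitory concentration. Their mRNA, converted to Cy3- or Cy5-labeled cDNA, hybridizes at 65° C. to a chip spanning every yeast gene, and expression is expressed as a ratio to untreated cells.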

Na2As [(1)]
The level of expressed mRNA in the presence of chemical substance/The level of expressed mRNA in the absence of chemical substance (yeast gene YAL053W, incubated two hours with chemical substance): 0.9
The level of expressed mRNA in the presence of chemical substance/The level of expressed mRNA in the absence of chemical substance (yeast gene YBL048W): 2.0
The level of expressed mRNA in the presence of chemical substance/The level of expressed mRNA in the absence of chemical substance (yeast gene YBL107C): 1.4
The level of expressed mRNA in the presence of chemical substance/The level of expressed mRNA in the absence of chemical substance (yeast gene YDL072C, incubated two hours with chemical substance): 1.3
The level of expressed mRNA in the presence of chemical substance/The level of expressed mRNA in the absence of chemical substance (yeast gene YDL204W, incubated two hours with chemical substance): 1.4
The level of expressed mRNA in the presence of chemical substance/The level of expressed mRNA in the absence of chemical substance (yeast gene YDL222C, incubated two hours with chemical substance): 0.9
The level of expressed mRNA in the presence of chemical substance/The level of expressed mRNA in the absence of chemical substance (yeast gene YDR330W, incubated two hours with chemical substance): 0.8
The level of expressed mRNA in the presence of chemical substance/The level of expressed mRNA in the absence of chemical substance (yeast gene YDR411C, incubated two hours with chemical substance): 0.9
The level of expressed mRNA in the presence of chemical substance/The level of expressed mRNA in the absence of chemical substance (yeast gene YDR511W, incubated two hours with chemical substance): 1.3
The level of expressed mRNA in the presence of chemical substance/The level of expressed mRNA in the absence of chemical substance (yeast gene YDR545W, incubated two hours with chemical substance): 0.6
The level of expressed mRNA in the presence of chemical substance/The level of expressed mRNA in the absence of chemical substance (yeast gene YEL001C, incubated two hours with chemical substance): 1.0
The level of expressed mRNA in the presence of chemical substance/The level of expressed mRNA in the absence of chemical substance (yeast gene YER004W, incubated two hours with chemical substance): 1.0
The level of expressed mRNA in the presence of chemical substance/The level of expressed mRNA in the absence of chemical substance (yeast gene YER035W, incubated two hours with chemical substance): 1.4
The level of expressed mRNA in the presence of chemical substance/The level of expressed mRNA in the absence of chemical substance (yeast gene YER079W, incubated two hours with chemical substance): 1.1
The level of expressed mRNA in the presence of chemical substance/The level of expressed mRNA in the absence of chemical substance (yeast gene YER106W, incubated two hours with chemical substance): 1.3
The level of expressed mRNA in the presence of chemical substance/The level of expressed mRNA in the absence of chemical substance (yeast gene YER158C, incubated two hours with chemical substance): 1.2
The level of expressed mRNA in the presence of chemical substance/The level of expressed mRNA in the absence of chemical substance (yeast gene YER163C, incubated two hours with chemical substance): 1.1
The level of expressed mRNA in the presence of chemical substance/The level of expressed mRNA in the absence of chemical substance (yeast gene YER175C, incubated two hours with chemical substance): 0.9
The level of expressed mRNA in the presence of chemical substance/The level of expressed mRNA in the absence of chemical substance (yeast gene YFL006W, incubated two hours with chemical substance): 0.8
The level of expressed mRNA in the presence of chemical substance/The level of expressed mRNA in the absence of chemical substance (yeast gene YFL010C, incubated two hours with chemical substance): 1.0
The level of expressed mRNA in the presence of chemical substance/The level of expressed mRNA in the absence of chemical substance (yeast gene YFL024C): 1.0
The level of expressed mRNA in the presence of chemical substance/The level of expressed mRNA in the absence of chemical substance (yeast gene YFL032W, incubated two hours with chemical substance): 0.4
The level of expressed mRNA in the presence of chemical substance/The level of expressed mRNA in the absence of chemical substance (yeast gene YGL037C, incubated two hours with chemical substance): 1.5
The level of expressed mRNA in the presence of chemical substance/The level of expressed mRNA in the absence of chemical substance (yeast gene YGL047W, incubated two hours with chemical substance): 1.0
The level of expressed mRNA in the presence of chemical substance/The level of expressed mRNA in the absence of chemical substance (yeast gene YGL053W, incubated two hours with chemical substance): 1.5
The level of expressed mRNA in the presence of chemical substance/The level of expressed mRNA in the absence of chemical substance (yeast gene YGL121C): 2.6
The level of expressed mRNA in the presence of chemical substance/The level of expressed mRNA in the absence of chemical substance (yeast gene YGL199C, incubated two hours with chemical substance): 1.1
The level of expressed mRNA in the presence of chemical substance/The level of expressed mRNA in the absence of chemical substance (yeast gene YGR101W, incubated two hours with chemical substance): 1.0
The level of expressed mRNA in the presence of chemical substance/The level of expressed mRNA in the absence of chemical substance (yeast gene YGR110W): 1.6
The level of expressed mRNA in the presence of chemical substance/The level of expressed mRNA in the absence of chemical substance (yeast gene YGR130C, incubated two hours with chemical substance): 0.9
The level of expressed mRNA in the presence of chemical substance/The level of expressed mRNA in the absence of chemical substance (yeast gene YGR154C, incubated two hours with chemical substance): 1.8
The level of expressed mRNA in the presence of chemical substance/The level of expressed mRNA in the absence of chemical substance (yeast gene YGR221C, incubated two hours with chemical substance): 0.9
The level of expressed mRNA in the presence of chemical substance/The level of expressed mRNA in the absence of chemical substance (yeast gene YHR138C, incubated two hours with chemical substance): 2.8
The level of expressed mRNA in the presence of chemical substance/The level of expressed mRNA in the absence of chemical substance (yeast gene YHR199C, incubated two hours with chemical substance): 1.9
The level of expressed mRNA in the presence of chemical substance/The level of expressed mRNA in the absence of chemical substance (yeast gene YIL023C, incubated two hours with chemical substance): 1.1
The level of expressed mRNA in the presence of chemical substance/The level of expressed mRNA in the absence of chemical substance (yeast gene YIL041W, incubated two hours with chemical substance): 1.0
The level of expressed mRNA in the presence of chemical substance/The level of expressed mRNA in the absence of chemical substance (yeast gene YIL087C, incubated two hours with chemical substance): 1.3
The level of expressed mRNA in the presence of chemical substance/The level of expressed mRNA in the absence of chemical substance (yeast gene YJL057C, incubated two hours with chemical substance): 1.5
The level of expressed mRNA in the presence of chemical substance/The level of expressed mRNA in the absence of chemical substance (yeast gene YJL066C, incubated two hours with chemical substance): 0.9
The level of expressed mRNA in the presence of chemical substance/The level of expressed mRNA in the absence of chemical substance (yeast gene YJL082W, incubated two hours with chemical substance): 1.4
The level of expressed mRNA in the presence of chemical substance/The level of expressed mRNA in the absence of chemical substance (yeast gene YJL151C, incubated two hours with chemical substance): 1.0
The level of expressed mRNA in the presence of chemical substance/The level of expressed mRNA in the absence of chemical substance (yeast gene YJL152W, incubated two hours with chemical substance): 0.9
The level of expressed mRNA in the presence of chemical substance/The level of expressed mRNA in the absence of chemical substance (yeast gene YJL161W, incubated two hours with chemical substance): 1.7
The level of expressed mRNA in the presence of chemical substance/The level of expressed mRNA in the absence of chemical substance (yeast gene YJL171C, incubated two hours with chemical substance): 2.3
The level of expressed mRNA in the presence of chemical substance/The level of expressed mRNA in the absence of chemical substance (yeast gene YJR008W, incubated two hours with chemical substance): 1.6
The level of expressed mRNA in the presence of chemical substance/The level of expressed mRNA in the absence of chemical substance (yeast gene YJR054W, incubated two hours with chemical substance): 0.8
The level of expressed mRNA in the presence of chemical substance/The level of expressed mRNA in the absence of chemical substance (yeast gene YKL071W): 8.3
The level of expressed mRNA in the presence of chemical substance/The level of expressed mRNA in the absence of chemical substance (yeast gene YKL086W, incubated two hours with chemical substance): 1.0
The level of expressed mRNA in the presence of chemical substance/The level of expressed mRNA in the absence of chemical substance (yeast gene YKL151C, incubated two hours with chemical substance): 1.2
The level of expressed mRNA in the presence of chemical substance/The level of expressed mRNA in the absence of chemical substance (yeast gene YKL153W, incubated two hours with chemical substance): 1.1
